# Measurements reported in patent US20220339143A1, “TAK-925 FOR USE IN TREATING NARCOLEPSY” (Takeda Pharmaceutical Company Limited, priority 2019, published 2022).
# Experiment: Single dose PK in healthy subjects (Cohorts 1, 2, S1 and S2), plasma
# Assay type: in vivo, human
# Method: This study investigates (i) the safety and tolerability of Compound A (methyl (2R,3S)-3-((methylsulfonyl)amino)-2-(((cis-4-phenylcyclohexyl)oxy)methyl)piperidine-1-carboxylate) when a single dose given as a 9 hour continuous IV infusion is administered to healthy adults, healthy elderly subjects and patients with narcolepsy type 1 (NT1); (ii) the pharmacokinetics of Compound A when a single dose given as a 9 hour continuous IV infusion is administered to healthy adults, healthy elderly subjects and patients with narcolepsy type 1; and (iii) the pharmacodynamics (PD) effects of Compound A, primarily by evaluation of the sleep latency on MWT when a single dose given as a 9 hour continuous IV infusion is administered to patients with narcolepsy type 1.
# Pharmacokinetics: Concentrations of Compound A in plasma, and CSF, and pharmacokinetics parameters.
# On average, the time to reach the plateau appeared to be approximately 3 to 4 hours after the start of infusion. […] After switching off the IV infusion, Compound A plasma concentrations declined rapidly and in a biphasic manner with a mean terminal disposition phase t1/2z ranging approximately from 3.4 to 5.1 hours across all doses. […] Table 5 provides a summary of plasma concentrations of Compound A after a single IV infusion in healthy subjects. Table 6 provides a summary of pharmacokinetic parameters of Compound A after a single IV infusion in healthy subjects.
# [1] = 7 mg single IV infusion, healthy subjects
# [2] = 7 mg, 0.17 hr After End of Infusion
# [3] = 14 mg single IV infusion, healthy subjects
# [4] = 28 mg single IV infusion, healthy subjects
# [5] = 28 mg, 0.17 hr After End of Infusion
# [6] = 28 mg, 0.33 hr After End of Infusion
# [7] = 28 mg, 0.5 hr After End of Infusion
# [8] = 28 mg, 0.75 hr After End of Infusion
# [9] = 28 mg, 1 hr After End of Infusion
# [10] = 28 mg, 1.5 hr After End of Infusion
# [11] = 28 mg, 2 hr After End of Infusion
# [12] = 56 mg single IV infusion, healthy subjects
# [13] = 56 mg, 0.17 hr After End of Infusion
# [14] = 56 mg, 0.33 hr After End of Infusion
# [15] = 56 mg, 0.5 hr After End of Infusion
# [16] = 56 mg, 0.75 hr After End of Infusion
# [17] = 56 mg, 1 hr After End of Infusion
# [18] = 56 mg, 1.5 hr After End of Infusion
compound,measurement,setting,value
"COC(=O)N1CCC[C@H](NS(C)(=O)=O)[C@@H]1CO[C@H]1CC[C@@H](c2ccccc2)CC1 [Compound A, methyl (2R,3S)-3-((methylsulfonyl)amino)-2-(((cis-4-phenylcyclohexyl)oxy)methyl)piperidine-1-carboxylate]",AUCinf D Mean,[1],20.48 ng·h/mL/mg
same,AUCinf D Median,[1],20.80 ng·h/mL/mg
same,CL Median,[1],48.10 L/h
same,Cmax D Mean,[1],2.416 ng/mL/mg
same,Cmax D Median,[1],2.360 ng/mL/mg
same,Vss Median,[1],100.0 L
same,t½z Mean,[1],4.120 h
same,t½z Median,[1],3.220 h
same,"Plasma concentration, Mean",[2],9.360 ng/mL
same,"Plasma concentration, Minimum",[2],7.91 ng/mL
same,"Plasma concentration, Q1",[2],9.090 ng/mL
same,"Plasma concentration, Mean","7 mg, Predose",0.000 ng/mL
same,"Plasma concentration, Minimum","7 mg, Predose",0.00 ng/mL
same,"Plasma concentration, Q1","7 mg, Predose",0.000 ng/mL
same,AUCinf D Mean,[3],23.70 ng·h/mL/mg
same,AUCinf D Median,[3],23.05 ng·h/mL/mg
same,Cmax D Mean,[3],2.647 ng/mL/mg
same,Cmax D Median,[3],2.640 ng/mL/mg
same,t½z Mean,[3],4.498 h
same,t½z Median,[3],4.170 h
same,AUCinf D Mean,[4],18.90 ng·h/mL/mg
same,AUCinf D Median,[4],19.60 ng·h/mL/mg
same,Cmax D Mean,[4],2.076 ng/mL/mg
same,Cmax D Median,[4],2.120 ng/mL/mg
same,t½z Mean,[4],5.142 h
same,t½z Median,[4],5.060 h
same,"Plasma concentration, Maximum",[5],34.9 ng/mL
same,"Plasma concentration, Mean",[5],32.52 ng/mL
same,"Plasma concentration, Median",[5],32.80 ng/mL
same,"Plasma concentration, Minimum",[5],28.2 ng/mL
same,"Plasma concentration, Q1",[5],32.70 ng/mL
same,"Plasma concentration, Q3",[5],34.00 ng/mL
same,"Plasma concentration, Maximum",[6],32.2 ng/mL
same,"Plasma concentration, Mean",[6],28.04 ng/mL
same,"Plasma concentration, Median",[6],27.20 ng/mL
same,"Plasma concentration, Minimum",[6],25.4 ng/mL
same,"Plasma concentration, Q1",[6],26.70 ng/mL
same,"Plasma concentration, Q3",[6],28.70 ng/mL
same,"Plasma concentration, Maximum",[7],33.7 ng/mL
same,"Plasma concentration, Mean",[7],25.36 ng/mL
same,"Plasma concentration, Median",[7],24.20 ng/mL
same,"Plasma concentration, Minimum",[7],20.9 ng/mL
same,"Plasma concentration, Q1",[7],21.30 ng/mL
same,"Plasma concentration, Q3",[7],26.70 ng/mL
same,"Plasma concentration, Maximum",[8],23.9 ng/mL
same,"Plasma concentration, Mean",[8],20.82 ng/mL
same,"Plasma concentration, Median",[8],19.50 ng/mL
same,"Plasma concentration, Minimum",[8],19.0 ng/mL
same,"Plasma concentration, Q1",[8],19.10 ng/mL
same,"Plasma concentration, Q3",[8],22.60 ng/mL
same,"Plasma concentration, Maximum",[9],21.4 ng/mL
same,"Plasma concentration, Mean",[9],18.56 ng/mL
same,"Plasma concentration, Median",[9],18.00 ng/mL
same,"Plasma concentration, Minimum",[9],15.6 ng/mL
same,"Plasma concentration, Q1",[9],17.80 ng/mL
same,"Plasma concentration, Q3",[9],20.00 ng/mL
same,"Plasma concentration, Maximum",[10],18.9 ng/mL
same,"Plasma concentration, Mean",[10],16.70 ng/mL
same,"Plasma concentration, Median",[10],18.00 ng/mL
same,"Plasma concentration, Minimum",[10],13.6 ng/mL
same,"Plasma concentration, Q1",[10],14.90 ng/mL
same,"Plasma concentration, Q3",[10],18.10 ng/mL
same,"Plasma concentration, Maximum",[11],13.4 ng/mL
same,"Plasma concentration, Mean",[11],10.53 ng/mL
same,"Plasma concentration, Median",[11],9.600 ng/mL
same,"Plasma concentration, Minimum",[11],8.06 ng/mL
same,"Plasma concentration, Q1",[11],8.990 ng/mL
same,"Plasma concentration, Q3",[11],12.60 ng/mL
same,AUCinf D Mean,[12],19.27 ng·h/mL/mg
same,AUCinf D Median,[12],18.75 ng·h/mL/mg
same,Cmax D Mean,[12],2.200 ng/mL/mg
same,Cmax D Median,[12],2.170 ng/mL/mg
same,t½z Mean,[12],3.860 h
same,t½z Median,[12],3.760 h
same,"Plasma concentration, Maximum",[13],79.9 ng/mL
same,"Plasma concentration, Mean",[13],63.58 ng/mL
same,"Plasma concentration, Median",[13],62.50 ng/mL
same,"Plasma concentration, Minimum",[13],54.5 ng/mL
same,"Plasma concentration, Q1",[13],55.60 ng/mL
same,"Plasma concentration, Q3",[13],66.50 ng/mL
same,"Plasma concentration, Mean",[14],54.37 ng/mL
same,"Plasma concentration, Median",[14],53.25 ng/mL
same,"Plasma concentration, Minimum",[14],44.7 ng/mL
same,"Plasma concentration, Q1",[14],45.00 ng/mL
same,"Plasma concentration, Mean",[15],50.33 ng/mL
same,"Plasma concentration, Median",[15],50.10 ng/mL
same,"Plasma concentration, Minimum",[15],38.4 ng/mL
same,"Plasma concentration, Q1",[15],40.90 ng/mL
same,"Plasma concentration, Mean",[16],45.77 ng/mL
same,"Plasma concentration, Median",[16],47.20 ng/mL
same,"Plasma concentration, Minimum",[16],33.3 ng/mL
same,"Plasma concentration, Q1",[16],36.90 ng/mL
same,"Plasma concentration, Mean",[17],41.83 ng/mL
same,"Plasma concentration, Median",[17],39.80 ng/mL
same,"Plasma concentration, Minimum",[17],30.1 ng/mL
same,"Plasma concentration, Q1",[17],34.80 ng/mL
same,"Plasma concentration, Mean",[18],33.63 ng/mL
same,"Plasma concentration, Median",[18],31.35 ng/mL
same,"Plasma concentration, Minimum",[18],27.4 ng/mL
same,"Plasma concentration, Q1",[18],28.40 ng/mL
